Measured values from US12018049B2, “Compositions and related methods for controlling vector-borne diseases” (priority 2017, dated 2024).

What was measured:
[1] = test system: Acyrthosiphon pisum aphids; experiment: Aphid survival monitored daily; type: in vivo
Buchnera = experiment: Buchnera/aphid DNA copy number by qPCR; type: in vivo, Acyrthosiphon pisum
[2] = test system: Acyrthosiphon pisum aphids; experiment: Aphid fecundity (offspring counts); type: in vivo; conditions: eNASCO, control approximately 7
Method: In addition, the developmental stage (1st, 2nd, 3rd, 4th, 5th instar) was determined daily throughout the experiment. Once an aphid reached the 4th instar stage, they were given their own artificial feeding system in a deep petri dish so that fecundity could be monitored once they reached adulthood.
For adult aphids, new nymphs were counted daily and then discarded. At the end of the experiments, fecundity was determined as the mean number of offspring produced daily once the aphid reached adulthood. Pictures of aphids were taken throughout the experiment to evaluate size differences between treatment groups.
In addition, the developmental stage (1st, 2nd, 3rd, 4th, 5th, and 5R (5th that has reproduced) instar) was determined daily throughout the experiment. Once an aphid reached the 4th instar stage, they were given their own artificial feeding system in a deep petri dish so that fecundity could be monitored once they reached adulthood.
For adult aphids, new nymphs were counted daily and then discarded. At the end of the experiments, fecundity was measured in two ways: 1) the mean day at which the first offspring for the treatment group was determined and 2) the mean number of offspring produced daily once the aphid reached adulthood. […]
In addition, the developmental stage (1st, 2nd, 3rd, 4th, 5th instar) was determined daily throughout the experiment. […]

E. coli DH5a = experiment: Antibiotic coating and penetration of corn kernels (E. coli growth on LB plates); type: cell-based, Escherichia coli; conditions: kernels soaked 1.5 hours in 2.5 or 0.25 mg/ml ciprofloxacin
[3] = test system: Sitophilus primary endosymbiont (SPE, Candidatus Sodalis pierantonius); experiment: SPE levels in weevils by qPCR; type: in vivo, Sitophilus zeamais; conditions: for SPE amount, fold higher in water-treated than in treated weevils: F0 adults, 18 days
Method: (§1) Sitophilus maize weevils (Sitophilus zeamais) were reared on organic corn at 27.5° C. and 70% relative humidity. Prior to being used for weevil rearing, corn was frozen for 7 days and then tempered to 10% humidity with sterile water. […] Ciprofloxacin (Sigma) stock solutions were made at 25 mg/ml in 0.1 N HCl, sterilized by passing through a 0.22 μm syringe filter, and stored at −20° C. For treatments, the appropriate amount of stock solution was diluted in sterile water.
(§2) Weevil survival was monitored daily for 18 days, after which DNA was extracted from the remaining weevils in each group. Briefly, the weevil body was surface sterilized by dipping the weevil into a 6% bleach solution for approximately 5 seconds. Weevils were then rinsed in sterile water and DNA was extracted from each individual […] using a DNA extraction kit (Qiagen, DNeasy kit) according to manufacturer's instructions. […]; SEQ ID NO: 245). […]; SEQ ID NO: 247) (Login et al., 2011). qPCR was performed using a qPCR amplification ramp of 1.6 degrees C./s and the following conditions: 1) 95° C. for 10 minutes, 2) 95° C. for 15 seconds, 3) 57° C. for 30 seconds, 4) repeat steps 2-3 40×, 5) 95° C. for 15 seconds, 6) 55° C. for 1 minute, 7) ramp change to 0.15 degrees C./s, 8) 95° C. for 1 second. qPCR data was analyzed using analytic (Thermo Fisher Scientific, QuantStudio Design and Analysis) software.

[4] = test system: Sitophilus zeamais weevils; experiment: Weevil survival; type: in vivo; conditions: adult mating pairs; 250 μg/ml or 2.5 mg/ml ciprofloxacin; 18 days
Method: as §1, §2

[5] = test system: Sitophilus zeamais weevils; experiment: Weevil reproduction (emergence of F1 offspring); conditions: 2.5 mg/ml ciprofloxacin; till day 43
Asaia = Asaia quantification by qPCR in mosquito midguts; type: in vivo, Anopheles coluzzii; conditions: blood meals with 0.1, 1 or 5 μg/ml azithromycin, three meals; vs control
[6] = test system: Anopheles coluzzii mosquitoes; experiment: Mosquito survival after azithromycin blood meals; type: in vivo; conditions: blood meals with 0.1, 1 or 5 μg/ml azithromycin; vs negative control
[7] = LSR-1, through plants, artificial diet without essential amino acids + 100 μg/ml rifampicin

CO[C@H]1/C=C/O[C@@]2(C)Oc3c(C)c(O)c4c(O)c(c(/C=N/N5CCN(C)CC5)c(O)c4c3C2=O)NC(=O)/C(C)=C\C=C\[C@H](C)[C@H](O)[C@@H](C)[C@@H](O)[C@@H](C)[C@H](OC(C)=O)[C@@H]1C [rifampicin]
time after which aphids began dying [1, 7]: 1 days | time by which all aphids succumbed to treatment [1, 7]: ≤ 9 days | Buchnera/aphid DNA copies, fold less than control (Buchnera; LSR-1, through plants, 100 μg/ml rifampicin, 7 days): ~4 fold

CC(=O)CCC(=O)O [levulinic acid]
survival of aphids ([1]; eNASCO, 0.3% levulinic acid, 11-day experiment): survival was significantly less | Buchnera/aphid DNA copies, fold less than control (Buchnera; eNASCO, 0.03 or 0.3% levulinic acid in water, 7 days): ~6 fold

CC(C)(CO)[C@@H](O)C(=O)NCCCO [pantothenol]
survival rate of aphids ([1]; eNASCO, leaf coating, 10 uM pantothenol, p=0.0019): lower survival rates than aphids placed on coated leaves with the control solution | survival rate of aphids ([1]; eNASCO, through plants, 10 or 100 uM pantothenol): negatively affected aphid fitness | mean number of offspring per day ([2]; 10 uM pantothenol): approximately 4 offspring/day | mean number of offspring per day ([2]; 100 uM pantothenol): ~5 offspring/day | Buchnera/aphid DNA copy number (Buchnera; eNASCO, 10 or 100 uM pantothenol, 8 days): does not affect Buchnera/aphid DNA copy number directly

O=C/C=C/c1ccccc1 [trans-cinnemaldehyde]
survival rates of aphids ([1]; LSR-1, 0.05%, 0.5%, and 5% trans-cinnemaldehyde, vs water): significantly lower | Buchnera/aphid DNA copies, fold less than control (Buchnera; LSR-1, 0.5 and 5% trans-cinnemaldehyde, 3 days): ~870 fold

O=C(O)c1cn(C2CC2)c2cc(N3CCNCC3)c(F)cc2c1=O [ciprofloxacin]
bacterial growth on plate with entire soaked corn kernel (E. coli DH5a): no bacteria grew | SPE amount, fold higher in water-treated than in treated weevils ([3]; 250 ug/ml ciprofloxacin): approximately 4 fold | SPE amount, fold higher in water-treated than in treated weevils ([3]; 2.5 mg/ml ciprofloxacin): ~8 fold | SPE levels, fold higher in water-treated than in treated F1 weevils ([3]; F1 weevils dissected from kernels, 2.5 mg/ml ciprofloxacin): approximately 4 fold | weevil survival [4]: all weevils remained alive | F1 offspring emerged [5]: much less offspring

CC[C@H]1OC(=O)[C@H](C)[C@@H](O[C@H]2C[C@@](C)(OC)[C@@H](O)[C@H](C)O2)[C@H](C)[C@@H](O[C@@H]2O[C@H](C)C[C@H](N(C)C)[C@H]2O)[C@](C)(O)C[C@@H](C)CN(C)[C@H](C)[C@@H](O)[C@]1(C)O [azithromycin]
Asaia specific genes (16S rDNA relative to S7, qPCR) (Asaia): reduction of Asaia specific genes | survival rate of mosquitoes [6]: decreased compared to the control

Cc1cc2c(C(C)C)c(O)c(O)c(C=O)c2c(O)c1-c1c(C)cc2c(C(C)C)c(O)c(O)c(C=O)c2c1O [gossypol, gossypol acetic acid]
time after which aphids began dying ([1]; through plants, 0.5% gossypol): 2 days | Buchnera/aphid DNA copies, fold less than control (Buchnera; through plants, 0.25 and 0.5% gossypol, 5 or 13 days): ~4 fold
